# Patent US20100216795A1, “TNIK INHIBITOR AND THE USE” (priority 2008, published 2010)
# Target: T1, human TNIK (N-terminal segment, TNIK_N) (Homo sapiens, UniProt Q9UKE5)
# T1 construct: made in house; host or cells: Sf21 insect cells (baculovirus)
# Assay: TNIK kinase assay (mobility shift)
# Assay type: biochemical
# Settings: 25 μM ATP, 1 h at room temperature
# Source text: A cDNA encoding the N-terminal segment (TNIK_N, residues 1-314) containing the kinase domain of human TNIK (NM_015028.1) was amplified from cDNA mixture synthesized from human tissue (Biochain) by PCR using the following primers: 5′-[…]-3′ ([SEQ ID NO:1]: forward primer, the underlined nucleotides indicates the location of a EheI site); 5′-[…]-3′ ([SEQ ID NO:2]: reverse primer, the underlined nucleotides indicates the location of a NotI site). The cDNA was subcloned into baculovirus transfer vector pFastBac_GSTb that includes protease cleavage site and glutathione S-transferase purification tag (GST-tag). The plasmid was purified and the insertion of the pFastBac_GSTb-TNIK_N was confirmed by DNA sequencing. Then E. coli DH10Bac competent cells were transformed with the plasmid to prepare the recombinant bacmid according to the instructions for the Bac-to-Bac™ baculovirus expression systems (Invitrogen). The Sf9 cells were transfected with the recombinant bacmid containing pFastBac_GSTb-TNIK_N using Cellfectin Reagent (Invitrogen) in SF-900II serum free media (Invitrogen). The viral supernatant was collected from the medium 72 h after transfection. The virus was amplified three times by infecting actively growing Sf9 or Sf21 cells in Grace's insect media (Invitrogen) supplemented with 10% FCS and an antibiotic-antimycotic reagent (Invitrogen) for 72 h at 27° C. in T-flask or roller bottles. The titer of amplified TNIK_N virus was estimated at 2.36×10^8 pfu/ml by using BacPAK™ Baculovirus Rapid Titer kit (Clontech).
# Log-phase Sf21 cells (2×10^6 cells/ml) in the Grace's insect media were infected with the recombinant baculovirus at MOI of 3.0 and incubated in roller bottles (250 ml media per bottle) for 72 h at 27° C., after which, the cells were collected by centrifugation, and the cell pellet washed with cold PBS and kept at −80° C. until purification. The following purification procedures were carried out at 4° C. The frozen cells were thawed on ice and lysed in lysis buffer (50 mM Tris-HCl, pH 7.5, 150 mM NaCl, 1% Nonidet P-40, 5 mM DTT, 0.5 mM EDTA, 0.5 mM EGTA) supplemented with 1 mM phenylmethansulfonylfluoride, 2 μg/ml leupeptin, 2 μg/ml aprotinin, 1 mM NaF, 100 μM sodium orthovanadate, and 1 μM cantharidin by sonication. The suspended lysate was cleared by centrifugation at 9000 g for 20 min and the supernatant was incubated for 1 h with glutathione Sepharose beads (GE Healthcare). The beads were suspended in buffer-H (50 mM Tris-HCl, pH 7.5, 1 M NaCl, 1 mM DTT, 0.5 mM EDTA, 0.5 mM EGTA and 0.05% Brij35) and washed with buffer-H followed by buffer-L (50 mM Tris-HCl, pH 7.5, 150 mM NaCl, 1 mM DTT, 0.5 mM EDTA, 0.5 mM EGTA, 0.05% Brij35) in an Econo-pack column (BIO-RAD). The bound TNIK_N was eluted with elution buffer (50 mM Tris-HCl, pH 8.0, 150 mM NaCl, 1 mM DTT, 10% glycerol, 0.5 mM EDTA, 0.5 mM EGTA and 5 mM reduced glutathione). The eluted fractions were collected and determined the protein concentration by Bradford reagent (BIO-RAD). The TNIK_N fractions were pooled and desalted using 10DG column (BIORAD) equilibrated with the storage buffer (50 mM Tris-HCl, pH 7.5, 150 mM NaCl, 1 mM DTT, 10% glycerol, 0.05% Brij35). The purified TNIK_N was characterized by electrophoresis using 4-20% polyacrylamide gels and matrix-assisted laser desorption/ionization reflection time-of-flight (MALDI-TOF) mass spectrometry on a Voyager-DE RP MALDI/TOF (Applied Biosystems). TNIK_N was confirmed by the molecular weight and MASCOT Peptide Mass Fingerprint.
# The kinase assays were conducted in a 20 μl volume using 384-well plates (Greiner). The reaction mixture consists of compound or vehicle (1% DMSO), 0.08 ng/μl TNIK_N, 1 μM FITC-labeled substrate peptides, FITC-x-Lys-Tyr-Lys-Thr-Leu-Arg-Gln ([SEQ ID NO.3], x: ε-aminocaproic acid), 20 mM Hepes, pH 7.5, 0.01% Triton X-100, 5 mM MgCl2, 25 μM ATP and 2 mM DTT. As blank, TNIK_N was excluded from the reaction mixture of vehicle (1% DMSO). […]
# T1 sequence (Q9UKE5 1-314): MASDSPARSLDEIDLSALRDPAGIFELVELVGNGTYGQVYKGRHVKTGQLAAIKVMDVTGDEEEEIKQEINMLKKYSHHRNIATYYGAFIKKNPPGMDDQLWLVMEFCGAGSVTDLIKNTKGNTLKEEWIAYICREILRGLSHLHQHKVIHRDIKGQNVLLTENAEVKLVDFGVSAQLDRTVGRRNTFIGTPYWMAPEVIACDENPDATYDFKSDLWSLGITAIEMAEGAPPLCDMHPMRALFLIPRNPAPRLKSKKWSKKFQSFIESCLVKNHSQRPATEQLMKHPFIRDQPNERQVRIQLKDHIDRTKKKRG
row,Compound,IC50
1,"Cc1cccc(C(=O)Nc2sc(Nc3ccccc3)nc2C(N)=O)c1 [Compound 2, 5-(3-methylbenzamido)-2-(phenylamino)thiazole-4-carboxamide]",40 nM
2,"CCC(CC)C(=O)Nc1sc(Nc2ccc(C)cc2)nc1C(N)=O [Compound 16, 2-(p-toluidino)-5-(2-ethylbutanamido)thiazole-4-carboxamide]",4100 nM
3,"CC(C)CC(=O)Nc1sc(Nc2ccccc2)nc1C(N)=O [Compound 7, 5-(3-methylbutanamido)-2-(phenylamino)thiazole-4-carboxamide]",180 nM
4,"Cc1ccc(Nc2nc(C(N)=O)c(NC(=O)c3cccc(Br)c3)s2)cc1 [Compound 12, 2-(p-toluidino)-5-(3-bromobenzamido)thiazole-4-carboxamide]",1700 nM
5,"COc1ccc(C(=O)Nc2sc(Nc3ccc(C)cc3)nc2C(N)=O)cc1OC [Compound 14, 2-(p-toluidino)-5-(3,4-dimethoxybenzamido)thiazole-4-carboxamide]",57 nM
6,"COc1ccc(Nc2nc(C(N)=O)c(NC(=O)c3ccc(NCCN4CCOCC4)cc3)s2)cc1 [Compound A27, 2-(4-methoxyphenylamino)-5-[4-(2-morpholino-ethyl-amino)benzamido]thiazole-4-carboxamide]",9 nM
7,"COc1ccc(C(=O)Nc2sc(Nc3ccccc3)nc2C(N)=O)cc1 [Compound 4, 5-(4-methoxybenzamido)-2-(phenylamino)thiazole-4-carboxamide]",10 nM
8,"CC(=O)Nc1ccc(C(=O)Nc2sc(Nc3ccc(C)cc3)nc2C(N)=O)cc1 [Compound 10, 2-(p-toluidino)-5-(4-acetamidobenzamido)thiazole-4-carboxamide]",14 nM
9,"NC(=O)c1nc(Nc2ccccc2)sc1NC(=O)c1ccc(F)cc1 [Compound A2, 5-(4-fluorobenzamido)-2-(phenylamino)thiazole-4-carboxamide]",17 nM
10,"COc1ccc(Nc2nc(C(N)=O)c(NC(=O)c3ccc(NCCc4ccncc4)cc3)s2)cc1 [Compound A55, 2-(4-methoxyphenylamino)-5-{4-[2-(pyridin-4-yl)ethylamino]benzamido}thiazole-4-carboxamide]",10 nM
11,"Cc1ccc(Nc2nc(C(N)=O)c(NC(=O)c3cccs3)s2)cc1 [Compound 15, 2-(p-toluidino)-5-(thiophene-2-carboxamido)thiazole-4-carboxamide]",31 nM
12,"COc1cccc(C(=O)Nc2sc(Nc3ccccc3)nc2C(N)=O)c1 [Compound 5, 5-(3-methoxybenzamido)-2-(phenylamino)thiazole-4-carboxamide]",7700 nM
13,"NC(=O)c1nc(Nc2cccnc2)sc1NC(=O)c1ccc(NCCc2ccncc2)cc1 [Compound A84, 2-(pyridin-3-ylamino)-5-{4-[2-(pyridin-4-yl)ethyl-amino]benzamido}thiazole-4-carboxamide]",2 nM
14,"NC(=O)c1nc(Nc2ccncc2)sc1NC(=O)c1ccc(F)cc1 [Compound A76, 5-(4-fluorobenzamido)-2-(pyridin-4-ylamino) thiazole-4-carboxamide]",7 nM
15,"COc1ccc(Nc2nc(C(N)=O)c(NC(=O)c3ccc(NC(=O)CN4CCN(C)CC4)cc3)s2)cc1 [Compound A42, 2-(4-methoxyphenylamino)-5-{4-[2-(4-methyl-piperazin-1-yl)acetamido]benzamido}thiazole-4-carboxamide]",18 nM
16,"CC(=O)Nc1ccc(C(=O)Nc2sc(Nc3ccc(F)cc3)nc2C(N)=O)cc1 [Compound A4, 5-(4-acetamidobenzamido)-2-(4-fluorophenyl-amino)-thiazole-4-carboxamide]",18 nM

row,Compound,IC50
1,"COc1ccc(Nc2nc(C(N)=O)c(NC(=O)c3ccc(NCCN4CCCC4)cc3)s2)cc1 [Compound A29, 2-(4-methoxyphenylamino)-5-{4-[2-(pyrrolidin-1-yl)ethylamino]benzamido}thiazole-4-carboxamide]",8 nM
2,"COc1ccc(Nc2nc(C(N)=O)c(NC(=O)c3ccc(NCCN(C)C)cc3)s2)cc1 [Compound A24, 5-{4-[2-(dimethylamino)ethylamino]benzamido}-2-(4-methoxyphenylamino)thiazole-4-carboxamide]",11 nM
3,"Cc1ccc(C(=O)Nc2sc(Nc3ccccc3)nc2C(N)=O)cc1 [Compound A1, 5-(4-methylbenzamido)-2-(phenylamino)thiazole-4-carboxamide]",6 nM
4,"CC(=O)Nc1ccc(C(=O)Nc2sc(Nc3ccccc3C)nc2C(N)=O)cc1 [Compound A9, 2-(o-toluidino)-5-(4-acetamidobenzamido) thiazole-4-carboxamide]",18 nM
5,"COc1ccc(Nc2nc(C(N)=O)c(NC(=O)c3ccc(N4CCC(CO)CC4)cc3)s2)cc1 [Compound A43, 5-{4-[4-(hydroxymethyl)piperidin-1-yl]benzamido}-2-(4-methoxyphenylamino)thiazole-4-carboxamide]",13 nM
6,"COc1ccc(C(=O)Nc2sc(Nc3cncnc3)nc2C(N)=O)cc1 [Compound A69, 5-(4-methoxybenzamido)-2-(pyrimidin-5-ylamino)thiazole-4-carboxamide]",7 nM
7,"COc1ccc(Nc2nc(C(N)=O)c(NC(=O)c3ccc(NC(C)=O)cc3)s2)cc1 [Compound A11, 5-(4-acetamidobenzamido)-2-(4-methoxyphenyl-amino)thiazole-4-carboxamide]",14 nM
8,"NC(=O)c1nc(Nc2cccnc2)sc1NC(=O)c1ccc(NCCO)cc1 [Compound A72, 5-[4-(2-hydroxyethylamino)benzamido]-2-(pyridin-3-ylamino)thiazole-4-carboxamide]",4 nM
9,"COc1ccc(Nc2nc(C(N)=O)c(NC(=O)c3ccc(N4CCN(C)CC4)cc3)s2)cc1 [Compound A22, 2-(4-methoxyphenylamino)-5-[4-(4-methyl-piperazin-1-yl)benzamido]thiazole-4-carboxamide]",15 nM
10,"COc1ccc(Nc2nc(C(N)=O)c(NC(=O)c3ccc(NCCO)cc3)s2)cc1 [Compound A23, 5-[4-(2-hydroxyethylamino)benzamido]-2-(4-methoxyphenylamino)thiazole-4-carboxamide]",8 nM
11,"COc1ccc(Nc2nc(C(N)=O)c(NC(=O)c3ccc(N)c(N)c3)s2)cc1 [Compound A103, 5-(3,4-diaminobenzamido)-2-(4-methoxyphenyl-amino)thiazole-4-carboxamide]",10 nM
12,"COc1ccc(Nc2nc(C(N)=O)c(NC(=O)c3ccc(OC)cc3)s2)cc1 [Compound A46, 5-(4-methoxybenzamido)-2-(4-methoxyphenyl-amino)thiazole-4-carboxamide]",16 nM
13,"Cc1ccc(Nc2nc(C(N)=O)c(NC(=O)c3ccccc3Cl)s2)cc1 [Compound 11, 2-(p-toluidino)-5-(2-chlorobenzamido)thiazole-4-carboxamide]",1700 nM
14,"COc1ccc(Nc2nc(C(N)=O)c(NC(=O)c3ccc(NC(=O)CO)cc3)s2)cc1 [Compound A37, 5-[4-(2-hydroxyacetamido)benzamido]-2-(4-methoxyphenylamino)thiazole-4-carboxamide]",9 nM
15,"NC(=O)c1nc(Nc2ccccc2)sc1NC(=O)c1ccccc1F [Compound 3, 5-(2-fluorobenzamido)-2-(phenylamino)thiazole-4-carboxamide]",19 nM
